Drawing on PubChem BioAssay AID1259407 (Chemical Carcinogenesis Research Information System (CCRIS), 2018), this text covers mutagenic call for 4 compounds.

In the series the test system is CCRIS mutagenicity, Ames/micronucleus/aberration tests. Description: CCRIS mutagenicity studies.
[1] abbreviates: Test System: AMES SALMONELLA TYPHIMURIUM, Strain/Indicator: TA98, Metabolic Activation: NONE, Method: PREINCUBATION
Setting [2] is: Test System: AMES SALMONELLA TYPHIMURIUM, Strain/Indicator: TA98, Metabolic Activation: NONE, Method: STANDARD PLATE.
[3] abbreviates: Test System: AMES SALMONELLA TYPHIMURIUM, Strain/Indicator: TA98, Metabolic Activation: RAT, LIVER, S-9, AROCLOR 1254, Method: STANDARD PLATE.
[4] abbreviates: Test System: AMES SALMONELLA TYPHIMURIUM, Strain/Indicator: TA100, Metabolic Activation: NONE, Method: PREINCUBATION
[5] abbreviates: Test System: AMES SALMONELLA TYPHIMURIUM, Strain/Indicator: TA100, Metabolic Activation: NONE, Method: STANDARD PLATE.
The mark [6] stands for this setting: Test System: AMES SALMONELLA TYPHIMURIUM, Strain/Indicator: TA100, Metabolic Activation: RAT, LIVER, S-9, AROCLOR 1254, Method: STANDARD PLATE.

The source made the active and inactive calls. The rule behind the calls is not given here.

On to `NC(=Nc1ccccc1)Nc1ccccc1`, for which the mutagenic call was “active; positive” (Test System: AMES SALMONELLA TYPHIMURIUM, Strain/Indicator: TA98, Metabolic Activation: HAMSTER, LIVER, S-9, AROCLOR 1254, Method: STANDARD PLATE); “inactive; negative” under setting [1]; “inactive; negative” under setting [2]; “inactive; negative” (Test System: AMES SALMONELLA TYPHIMURIUM, Strain/Indicator: TA98, Metabolic Activation: RAT LIVER S-9, PHENOBARBITAL AND BETA-NAPHTHOFLAVONE, Method: PREINCUBATION); “inactive; negative” under setting [3]; “inactive; negative” (Test System: AMES SALMONELLA TYPHIMURIUM, Strain/Indicator: TA98, Metabolic Activation: S-9, Method: STANDARD PLATE). Further, the mutagenic call (Test System: AMES SALMONELLA TYPHIMURIUM, Strain/Indicator: TA100, Metabolic Activation: HAMSTER, LIVER, S-9, AROCLOR 1254, Method: STANDARD PLATE) is “active; positive”; the mutagenic call under setting [4] is “inactive; negative”; the mutagenic call under setting [5] is “inactive; negative”; the mutagenic call (Test System: AMES SALMONELLA TYPHIMURIUM, Strain/Indicator: TA100, Metabolic Activation: RAT LIVER S-9, PHENOBARBITAL AND BETA-NAPHTHOFLAVONE, Method: PREINCUBATION) was “inactive; negative”; the mutagenic call under setting [6] was “inactive; negative”; the mutagenic call (Test System: AMES SALMONELLA TYPHIMURIUM, Strain/Indicator: TA100, Metabolic Activation: S-9, Method: STANDARD PLATE) was “inactive; negative”. For the same compound, the mutagenic call runs as follows: (Test System: AMES SALMONELLA TYPHIMURIUM, Strain/Indicator: TA1535, Metabolic Activation: HAMSTER, LIVER, S-9, AROCLOR 1254, Method: STANDARD PLATE) “inactive; negative”; (Test System: AMES SALMONELLA TYPHIMURIUM, Strain/Indicator: TA1535, Metabolic Activation: NONE, Method: PREINCUBATION) “inactive; negative”; (Test System: AMES SALMONELLA TYPHIMURIUM, Strain/Indicator: TA1535, Metabolic Activation: NONE, Method: STANDARD PLATE) “inactive; negative”; (Test System: AMES SALMONELLA TYPHIMURIUM, Strain/Indicator: TA1535, Metabolic Activation: RAT LIVER S-9, PHENOBARBITAL AND BETA-NAPHTHOFLAVONE, Method: PREINCUBATION) “inactive; negative”; (Test System: AMES SALMONELLA TYPHIMURIUM, Strain/Indicator: TA1535, Metabolic Activation: RAT, LIVER, S-9, AROCLOR 1254, Method: STANDARD PLATE) “inactive; negative”; (Test System: AMES SALMONELLA TYPHIMURIUM, Strain/Indicator: TA1537, Metabolic Activation: HAMSTER, LIVER, S-9, AROCLOR 1254, Method: STANDARD PLATE) “inactive; negative”. Moreover, the mutagenic call reads like this: (Test System: AMES SALMONELLA TYPHIMURIUM, Strain/Indicator: TA1537, Metabolic Activation: NONE, Method: PREINCUBATION) “inactive; negative”; (Test System: AMES SALMONELLA TYPHIMURIUM, Strain/Indicator: TA1537, Metabolic Activation: RAT LIVER S-9, PHENOBARBITAL AND BETA-NAPHTHOFLAVONE, Method: PREINCUBATION) “inactive; negative”; (Test System: AMES SALMONELLA TYPHIMURIUM, Strain/Indicator: TA1537, Metabolic Activation: RAT, LIVER, S-9, AROCLOR 1254, Method: STANDARD PLATE) “inactive; negative”; (Test System: AMES SALMONELLA TYPHIMURIUM, Strain/Indicator: TA1538, Metabolic Activation: HAMSTER, LIVER, S-9, AROCLOR 1254, Method: STANDARD PLATE) “inactive; negative”; (Test System: AMES SALMONELLA TYPHIMURIUM, Strain/Indicator: TA1538, Metabolic Activation: NONE, Method: PREINCUBATION) “inactive; negative”; (Test System: AMES SALMONELLA TYPHIMURIUM, Strain/Indicator: TA1538, Metabolic Activation: NONE, Method: STANDARD PLATE) “inactive; negative”. Further, the mutagenic call (Test System: AMES SALMONELLA TYPHIMURIUM, Strain/Indicator: TA1538, Metabolic Activation: RAT LIVER S-9, PHENOBARBITAL AND BETA-NAPHTHOFLAVONE, Method: PREINCUBATION) is “inactive; negative”; the mutagenic call (Test System: AMES SALMONELLA TYPHIMURIUM, Strain/Indicator: TA1538, Metabolic Activation: RAT, LIVER, S-9, AROCLOR 1254, Method: STANDARD PLATE) is “inactive; negative”; the mutagenic call (Test System: E.COLI, Strain/Indicator: WP2UVRA, Metabolic Activation: NONE, Method: PREINCUBATION) was “inactive; negative”; the mutagenic call (Test System: E.COLI, Strain/Indicator: WP2UVRA, Metabolic Activation: RAT LIVER S-9, PHENOBARBITAL AND BETA-NAPHTHOFLAVONE, Method: PREINCUBATION) was “inactive; negative”; the mutagenic call (Test System: MOUSE LYMPHOMA, Strain/Indicator: L5178Y (TK+/TK-), Metabolic Activation: NONE, Method: SUSPENSION/PLATE) was “inactive; negative. reevaluation of results: negative”; the mutagenic call (Test System: MOUSE LYMPHOMA, Strain/Indicator: L5178Y (TK+/TK-), Metabolic Activation: RAT, LIVER, S-9, AROCLOR 1254, Method: SUSPENSION/PLATE) was “inactive; negative. reevaluation of results: inconclusive”.
On to `O=C1c2ccccc2-c2cc([N+](=O)[O-])ccc21`, for which the mutagenic call is “active; positive” (Test System: AMES SALMONELLA TYPHIMURIUM, Strain/Indicator: TA98 (1,8-DNP6), Metabolic Activation: NONE, Method: PREINCUBATION); “active; positive” (Test System: AMES SALMONELLA TYPHIMURIUM, Strain/Indicator: TA98(NR), Metabolic Activation: NONE, Method: PREINCUBATION); “active; positive” (Test System: AMES SALMONELLA TYPHIMURIUM, Strain/Indicator: TA98(NR), Metabolic Activation: RAT LIVER S-9 (10%), Method: PREINCUBATION); “active; positive” (Test System: AMES SALMONELLA TYPHIMURIUM, Strain/Indicator: TA98(NR), Metabolic Activation: RAT LIVER S-9, 3-METHYLCHOLANTHRENE (10%), Method: PREINCUBATION); “active; positive” (Test System: AMES SALMONELLA TYPHIMURIUM, Strain/Indicator: TA98(NR), Metabolic Activation: RAT LIVER S-9, BETA-NAPHTHAFLAVONE (10%), Method: PREINCUBATION); “active; positive” (Test System: AMES SALMONELLA TYPHIMURIUM, Strain/Indicator: TA98(NR), Metabolic Activation: RAT LIVER S-9, PCB (10%), Method: PREINCUBATION). Besides, the mutagenic call was “active; positive” (Test System: AMES SALMONELLA TYPHIMURIUM, Strain/Indicator: TA98(NR), Metabolic Activation: RAT LIVER S-9, PHENOBARBITAL (10%), Method: PREINCUBATION); “active; positive” under setting [1]; “active; positive” under setting [2]; “active; positive” under setting [3]; “inactive; negative” under setting [5]; “inactive; negative” under setting [6]. Besides, the mutagenic call (Test System: AMES SALMONELLA TYPHIMURIUM, Strain/Indicator: TA7001, Metabolic Activation: NONE, Method: PREINCUBATION) was “inactive; negative”; the mutagenic call (Test System: AMES SALMONELLA TYPHIMURIUM, Strain/Indicator: TA7002, Metabolic Activation: NONE, Method: PREINCUBATION) was “active; positive”; the mutagenic call (Test System: AMES SALMONELLA TYPHIMURIUM, Strain/Indicator: TA7003, Metabolic Activation: NONE, Method: PREINCUBATION) was “active; positive”; the mutagenic call (Test System: AMES SALMONELLA TYPHIMURIUM, Strain/Indicator: TA7004, Metabolic Activation: NONE, Method: PREINCUBATION) is “active; positive”; the mutagenic call (Test System: AMES SALMONELLA TYPHIMURIUM, Strain/Indicator: TA7005, Metabolic Activation: NONE, Method: PREINCUBATION) is “active; positive”; the mutagenic call (Test System: AMES SALMONELLA TYPHIMURIUM, Strain/Indicator: TA7006, Metabolic Activation: NONE, Method: PREINCUBATION) is “active; positive”.
`c1ccc2c(c1)ccc1cccnc12`: the mutagenic call reads like this: under setting [6], “inactive; negative”; (Test System: AMES SALMONELLA TYPHIMURIUM, Strain/Indicator: TA100, Metabolic Activation: RAT, LIVER, S-9, PCB, Method: STANDARD PLATE) “active; positive”; (Test System: AMES SALMONELLA TYPHIMURIUM, Strain/Indicator: TA100, Metabolic Activation: RAT, LIVER, S-9, PHENOBARBITAL AND 5,6-BENZOFLAVONE, Method: PREINCUBATION) “inactive; negative”.
In the case of `Cc1ccc2cc3ccc4ccccc4c3nc2c1`, the mutagenic call (Test System: AMES SALMONELLA TYPHIMURIUM, Strain/Indicator: TA97A, Metabolic Activation: NONE, Method: PREINCUBATION) is “inactive; negative”; the mutagenic call under setting [1] is “inactive; negative”; the mutagenic call under setting [4] was “active; positive”; the mutagenic call (Test System: AMES SALMONELLA TYPHIMURIUM, Strain/Indicator: TA102, Metabolic Activation: NONE, Method: PREINCUBATION) was “inactive; negative”.
